Values quoted from earlier work as cited in patent publication US6048878A, “Substituted piperidine derivatives as selective agonists of 5-HT receptors” (Merck Sharp & Dohme Ltd., priority 1995, dated 2000).

Tests used:
[1] = test system: human 5-HT1D.sbsb.α and 5-HT1D.sbsb.β receptor subtypes; conditions: cf. WO-A-91/17174, Table 1
[2] = therapeutic doses

In the case of `CNS(=O)(=O)Cc1ccc2[nH]cc(CCN(C)C)c2c1` [sumatriptan], the “discrimination between the human 5-HT1D.sbsb.α and 5-HT1D.sbsb.β receptor subtypes” value [1] is listed as “barely discriminates” and the “adverse cardiovascular events in humans” value [2] is listed as “certain adverse cardiovascular events”.
